Measurements taken from ChEMBL document CHEMBL1201862, “PubChem BioAssay data set” (2004).
Values belong to the molecule of their own block, whether it stands above or below them. Active and inactive are the calls of the source.

What was measured:
[1] = target: T1, Alkaline phosphatase, tissue-nonspecific isozyme (Homo sapiens, UniProt P05186); test: potency against alkaline phosphatase TNAP – biochemical, luminescent, dose response, SAR follow-up (AID 1056)
T1 sequence (P05186 whole entry): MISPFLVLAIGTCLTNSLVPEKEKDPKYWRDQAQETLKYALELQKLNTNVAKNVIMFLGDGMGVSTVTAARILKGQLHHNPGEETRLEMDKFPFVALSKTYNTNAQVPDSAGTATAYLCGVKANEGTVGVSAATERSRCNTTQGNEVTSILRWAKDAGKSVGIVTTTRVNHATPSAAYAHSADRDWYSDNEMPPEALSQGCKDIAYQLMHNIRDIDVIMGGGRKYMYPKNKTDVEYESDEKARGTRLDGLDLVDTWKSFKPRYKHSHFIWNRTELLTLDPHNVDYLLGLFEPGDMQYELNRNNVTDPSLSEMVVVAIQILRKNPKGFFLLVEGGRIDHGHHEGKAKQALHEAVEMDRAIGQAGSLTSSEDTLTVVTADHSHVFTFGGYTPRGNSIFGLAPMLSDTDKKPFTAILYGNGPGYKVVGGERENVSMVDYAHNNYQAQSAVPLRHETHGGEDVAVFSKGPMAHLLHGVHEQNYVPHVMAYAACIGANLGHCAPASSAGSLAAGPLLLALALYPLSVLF

[2] = target: T2, RNA-binding protein pos-1 (Caenorhabditis elegans, UniProt G5EF15); test: disruptors of C. elegans POS-1 RNA interaction – biochemical, fluorescence polarization, dose response (AID 1964);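 further: purified POS-1 fused to maltose binding protein made in E. coli; potency of compounds blocking POS-1 binding to fluorescent RNA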
T2 sequence (G5EF15 whole entry): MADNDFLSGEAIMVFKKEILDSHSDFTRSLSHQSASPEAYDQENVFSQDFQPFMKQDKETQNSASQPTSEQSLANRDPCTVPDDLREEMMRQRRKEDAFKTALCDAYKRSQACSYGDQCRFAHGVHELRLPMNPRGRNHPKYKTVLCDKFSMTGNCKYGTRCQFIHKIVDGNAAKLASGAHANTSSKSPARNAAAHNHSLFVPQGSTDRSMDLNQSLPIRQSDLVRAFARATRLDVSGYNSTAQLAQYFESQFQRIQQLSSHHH

[3] = target: T1, Alkaline phosphatase, tissue-nonspecific isozyme; test: activation of tissue-nonspecific alkaline phosphatase – biochemical, TNAP isozyme, mouse IAP uHTS hits, selectivity assay for mouse IAP activator project, dose response (AID 488880); format: functional
[4] = target: Intestinal-type alkaline phosphatase (Homo sapiens, UniProt P09923); test: activation of human intestinal alkaline phosphatase – biochemical, dose response (AID 488873); format: functional
[5] = target: T3, Zinc finger protein mex-5 (Caenorhabditis elegans, UniProt Q9XUB2); test: potency of MEX-5 RNA-binding blockers – biochemical, C. elegans, fluorescence polarization, dose response (AID 1960)
T3 sequence (Q9XUB2 whole entry): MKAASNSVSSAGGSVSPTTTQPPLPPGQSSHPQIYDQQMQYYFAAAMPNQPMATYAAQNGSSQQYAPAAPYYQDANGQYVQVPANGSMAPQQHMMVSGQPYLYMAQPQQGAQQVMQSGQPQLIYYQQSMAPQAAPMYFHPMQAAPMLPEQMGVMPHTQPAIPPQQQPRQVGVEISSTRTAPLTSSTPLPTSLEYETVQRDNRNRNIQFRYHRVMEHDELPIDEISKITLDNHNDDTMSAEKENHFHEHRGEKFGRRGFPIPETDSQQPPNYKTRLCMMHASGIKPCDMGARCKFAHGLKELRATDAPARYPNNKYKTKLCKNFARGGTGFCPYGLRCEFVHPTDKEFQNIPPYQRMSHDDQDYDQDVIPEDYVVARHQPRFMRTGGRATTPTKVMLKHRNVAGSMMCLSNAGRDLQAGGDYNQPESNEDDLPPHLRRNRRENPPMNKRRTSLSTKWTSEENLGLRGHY

[6] = target: Intestinal-type alkaline phosphatase (Mus musculus, UniProt P24822); test: mouse intestinal alkaline phosphatase activators, dose response, biochemical, luminescence, uHTS hits (AID 488783); format: functional
SUMO-activating enzyme [7] = target: T4, SUMO-activating enzyme (Homo sapiens, UniProt Q9UBT2); test: blockers of UBC9-mediated SUMO conjugation – biochemical, AlphaScreen, SUMOylation inhibitor project, confirmation (AID 2018); format: functional
[8] = target: T5, C-C chemokine receptor type 6 (Homo sapiens, UniProt P51684); test: antagonism of CCR6 beta-arrestin recruitment – cell-based, luminescent beta-arrestin readout, dose response (AID 504728); format: functional
T5 sequence (P51684 whole entry): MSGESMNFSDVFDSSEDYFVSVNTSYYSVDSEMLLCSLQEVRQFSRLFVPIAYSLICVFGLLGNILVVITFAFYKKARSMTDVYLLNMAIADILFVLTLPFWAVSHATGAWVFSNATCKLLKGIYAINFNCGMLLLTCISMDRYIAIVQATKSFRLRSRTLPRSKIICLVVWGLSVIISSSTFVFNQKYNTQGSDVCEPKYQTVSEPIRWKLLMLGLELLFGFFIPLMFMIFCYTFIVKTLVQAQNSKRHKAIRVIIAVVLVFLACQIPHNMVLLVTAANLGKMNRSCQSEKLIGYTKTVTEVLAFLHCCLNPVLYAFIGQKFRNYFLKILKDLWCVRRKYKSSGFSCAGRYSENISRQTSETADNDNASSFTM

Beta-galactosidase = Beta-galactosidase (Escherichia coli, UniProt Q8VNN2); test: detection-enzyme interference by beta-gal modulators – biochemical, E. coli enzyme, set 3, artefact control for CCR6 antagonist project, dose response (AID 504712); format: functional
SUMO-activating enzyme [9] = target: T4, SUMO-activating enzyme; test: blockers of SAE1/SAE2–UBC9 SUMO transfer – biochemical, HTRF, uHTS, primary screen (AID 2006); format: protein-complex assay
H9c2 = test: cells; format: functional, cell-based; settings: Rattus norvegicus, H9c2, Myocardium;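 further: confirmatory concentration-response retest of ultra-high-throughput screening hits for modulation of myocardial damage; cell death induced by hydrogen peroxide oxidative stress; compound pretreatment for 60 min then peroxide exposure for 2 h; potency is for protecting the cells against peroxide damage rather than for killing them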
[10] = target: Peroxisome proliferator-activated receptor gamma/Nuclear receptor coactivator 1 (Homo sapiens, UniProt P37231); test: (§1) TR-FRET dose response biochemical High Throughput Screening assay for agonists of the steroid receptor coactivator 1 (SRC-1) recruitment by the peroxisome proliferator-activated receptor gamma (PPAR gamma): non-selective agonists. [Related pubchem assays (depositor defined):AID1300, AID1808, AID504735, AID631]; format: protein assay
[11] = target: Peroxisome proliferator-activated receptor gamma/Nuclear receptor coactivator 3 (Homo sapiens, UniProt P37231); test: as §1, with “3 (SRC-3)” for “1 (SRC-1)”, “assays: 1301 (Confirmation screen.), 1048 (Primary screen.)]” for “assays (depositor defined):AID1300, AID1808, AID504735, AID631]”; format: functional
[12] = target: Peroxisome proliferator-activated receptor gamma/Nuclear receptor coactivator 2 (Homo sapiens, UniProt P37231); test: TR-FRET dose response biochemical High Throughput Screening assay for agonists of the steroid receptor coactivator 2 (SRC-2) recruitment by the peroxisome proliferator-activated receptor gamma (PPAR gamma): non-selective agonists. [Related pubchem assays: 1297, 1032 ]; format: functional

T4 sequence (Q9UBE0 whole entry): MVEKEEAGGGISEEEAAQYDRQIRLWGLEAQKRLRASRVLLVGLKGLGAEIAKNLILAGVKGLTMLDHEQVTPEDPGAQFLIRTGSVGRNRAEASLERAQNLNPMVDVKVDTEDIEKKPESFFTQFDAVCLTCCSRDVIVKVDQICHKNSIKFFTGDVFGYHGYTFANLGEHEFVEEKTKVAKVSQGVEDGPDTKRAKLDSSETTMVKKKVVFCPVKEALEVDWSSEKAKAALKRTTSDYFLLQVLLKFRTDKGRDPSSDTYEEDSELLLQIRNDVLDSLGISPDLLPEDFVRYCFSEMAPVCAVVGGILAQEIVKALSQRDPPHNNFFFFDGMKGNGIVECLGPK
T4 sequence (Q9UBT2 whole entry): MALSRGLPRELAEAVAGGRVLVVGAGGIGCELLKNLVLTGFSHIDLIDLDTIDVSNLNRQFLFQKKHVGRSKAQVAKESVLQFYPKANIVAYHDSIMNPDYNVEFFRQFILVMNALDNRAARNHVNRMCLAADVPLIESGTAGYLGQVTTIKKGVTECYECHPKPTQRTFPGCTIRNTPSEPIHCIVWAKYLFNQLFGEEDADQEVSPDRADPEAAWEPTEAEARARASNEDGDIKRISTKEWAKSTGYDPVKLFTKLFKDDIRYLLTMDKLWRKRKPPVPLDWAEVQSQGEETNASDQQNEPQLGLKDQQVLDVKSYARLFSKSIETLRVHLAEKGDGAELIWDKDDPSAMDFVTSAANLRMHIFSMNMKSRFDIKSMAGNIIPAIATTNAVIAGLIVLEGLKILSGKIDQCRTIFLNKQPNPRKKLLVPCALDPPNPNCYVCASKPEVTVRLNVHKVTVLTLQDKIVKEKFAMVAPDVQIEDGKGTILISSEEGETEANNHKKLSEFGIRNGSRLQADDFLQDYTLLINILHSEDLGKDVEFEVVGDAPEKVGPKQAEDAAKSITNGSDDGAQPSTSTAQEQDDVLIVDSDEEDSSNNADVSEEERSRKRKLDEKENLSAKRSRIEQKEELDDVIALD
Peroxisome proliferator-activated receptor gamma/Nuclear receptor coactivator 1, sequence (P37231 whole entry): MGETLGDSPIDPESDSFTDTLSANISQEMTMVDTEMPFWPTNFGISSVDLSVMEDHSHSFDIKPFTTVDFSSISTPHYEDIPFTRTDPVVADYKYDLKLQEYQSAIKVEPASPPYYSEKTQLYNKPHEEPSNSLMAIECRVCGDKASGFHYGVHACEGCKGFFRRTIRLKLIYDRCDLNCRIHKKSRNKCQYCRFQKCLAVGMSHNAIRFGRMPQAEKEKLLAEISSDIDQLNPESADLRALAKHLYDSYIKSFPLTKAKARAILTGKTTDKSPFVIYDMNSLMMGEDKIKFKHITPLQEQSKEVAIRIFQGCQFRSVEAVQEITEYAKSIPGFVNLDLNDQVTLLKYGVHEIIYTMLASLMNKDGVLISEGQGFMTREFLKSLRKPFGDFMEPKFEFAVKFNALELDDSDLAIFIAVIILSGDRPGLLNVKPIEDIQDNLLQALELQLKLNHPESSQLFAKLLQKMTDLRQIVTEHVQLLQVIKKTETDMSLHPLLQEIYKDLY
Peroxisome proliferator-activated receptor gamma/Nuclear receptor coactivator 1, sequence (Q15788 whole entry, further chain): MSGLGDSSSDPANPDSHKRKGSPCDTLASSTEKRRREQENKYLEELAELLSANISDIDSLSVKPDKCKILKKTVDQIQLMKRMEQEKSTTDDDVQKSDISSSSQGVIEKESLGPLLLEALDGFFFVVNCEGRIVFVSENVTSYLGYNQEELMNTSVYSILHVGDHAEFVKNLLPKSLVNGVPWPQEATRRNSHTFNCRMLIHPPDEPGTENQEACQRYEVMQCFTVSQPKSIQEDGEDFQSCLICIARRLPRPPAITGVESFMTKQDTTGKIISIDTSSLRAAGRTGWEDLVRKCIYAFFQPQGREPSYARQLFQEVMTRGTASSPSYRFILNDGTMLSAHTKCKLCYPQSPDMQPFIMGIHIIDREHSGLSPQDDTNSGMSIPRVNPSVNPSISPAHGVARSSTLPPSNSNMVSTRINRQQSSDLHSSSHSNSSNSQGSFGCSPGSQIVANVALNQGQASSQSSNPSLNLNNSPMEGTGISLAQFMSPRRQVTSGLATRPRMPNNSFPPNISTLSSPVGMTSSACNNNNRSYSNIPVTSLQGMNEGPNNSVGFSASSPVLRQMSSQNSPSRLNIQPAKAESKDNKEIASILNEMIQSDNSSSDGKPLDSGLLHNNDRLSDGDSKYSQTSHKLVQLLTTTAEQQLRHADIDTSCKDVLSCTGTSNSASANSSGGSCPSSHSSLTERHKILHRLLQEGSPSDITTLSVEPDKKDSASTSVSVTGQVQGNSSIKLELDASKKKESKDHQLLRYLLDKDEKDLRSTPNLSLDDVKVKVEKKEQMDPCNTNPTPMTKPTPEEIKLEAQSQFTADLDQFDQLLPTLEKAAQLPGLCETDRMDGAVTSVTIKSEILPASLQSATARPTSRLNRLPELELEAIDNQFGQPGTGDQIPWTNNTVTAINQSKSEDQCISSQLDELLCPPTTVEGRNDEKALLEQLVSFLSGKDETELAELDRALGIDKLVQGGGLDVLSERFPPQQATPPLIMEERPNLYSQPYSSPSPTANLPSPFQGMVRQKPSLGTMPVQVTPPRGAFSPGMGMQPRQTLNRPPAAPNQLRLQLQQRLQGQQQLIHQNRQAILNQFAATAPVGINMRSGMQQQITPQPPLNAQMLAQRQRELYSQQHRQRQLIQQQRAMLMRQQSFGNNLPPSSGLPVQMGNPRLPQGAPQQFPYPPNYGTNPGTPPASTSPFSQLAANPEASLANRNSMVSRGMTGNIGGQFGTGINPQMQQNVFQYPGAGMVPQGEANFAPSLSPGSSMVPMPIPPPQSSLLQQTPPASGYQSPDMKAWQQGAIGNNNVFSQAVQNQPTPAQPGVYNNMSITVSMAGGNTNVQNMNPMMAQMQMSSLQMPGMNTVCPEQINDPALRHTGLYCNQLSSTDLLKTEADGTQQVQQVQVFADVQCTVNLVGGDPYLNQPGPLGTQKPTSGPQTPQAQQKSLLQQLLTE
Peroxisome proliferator-activated receptor gamma/Nuclear receptor coactivator 3, sequence (P37231 whole entry): as the sequence (P37231 whole entry) above
Peroxisome proliferator-activated receptor gamma/Nuclear receptor coactivator 3, sequence (Q9Y6Q9 whole entry, further chain): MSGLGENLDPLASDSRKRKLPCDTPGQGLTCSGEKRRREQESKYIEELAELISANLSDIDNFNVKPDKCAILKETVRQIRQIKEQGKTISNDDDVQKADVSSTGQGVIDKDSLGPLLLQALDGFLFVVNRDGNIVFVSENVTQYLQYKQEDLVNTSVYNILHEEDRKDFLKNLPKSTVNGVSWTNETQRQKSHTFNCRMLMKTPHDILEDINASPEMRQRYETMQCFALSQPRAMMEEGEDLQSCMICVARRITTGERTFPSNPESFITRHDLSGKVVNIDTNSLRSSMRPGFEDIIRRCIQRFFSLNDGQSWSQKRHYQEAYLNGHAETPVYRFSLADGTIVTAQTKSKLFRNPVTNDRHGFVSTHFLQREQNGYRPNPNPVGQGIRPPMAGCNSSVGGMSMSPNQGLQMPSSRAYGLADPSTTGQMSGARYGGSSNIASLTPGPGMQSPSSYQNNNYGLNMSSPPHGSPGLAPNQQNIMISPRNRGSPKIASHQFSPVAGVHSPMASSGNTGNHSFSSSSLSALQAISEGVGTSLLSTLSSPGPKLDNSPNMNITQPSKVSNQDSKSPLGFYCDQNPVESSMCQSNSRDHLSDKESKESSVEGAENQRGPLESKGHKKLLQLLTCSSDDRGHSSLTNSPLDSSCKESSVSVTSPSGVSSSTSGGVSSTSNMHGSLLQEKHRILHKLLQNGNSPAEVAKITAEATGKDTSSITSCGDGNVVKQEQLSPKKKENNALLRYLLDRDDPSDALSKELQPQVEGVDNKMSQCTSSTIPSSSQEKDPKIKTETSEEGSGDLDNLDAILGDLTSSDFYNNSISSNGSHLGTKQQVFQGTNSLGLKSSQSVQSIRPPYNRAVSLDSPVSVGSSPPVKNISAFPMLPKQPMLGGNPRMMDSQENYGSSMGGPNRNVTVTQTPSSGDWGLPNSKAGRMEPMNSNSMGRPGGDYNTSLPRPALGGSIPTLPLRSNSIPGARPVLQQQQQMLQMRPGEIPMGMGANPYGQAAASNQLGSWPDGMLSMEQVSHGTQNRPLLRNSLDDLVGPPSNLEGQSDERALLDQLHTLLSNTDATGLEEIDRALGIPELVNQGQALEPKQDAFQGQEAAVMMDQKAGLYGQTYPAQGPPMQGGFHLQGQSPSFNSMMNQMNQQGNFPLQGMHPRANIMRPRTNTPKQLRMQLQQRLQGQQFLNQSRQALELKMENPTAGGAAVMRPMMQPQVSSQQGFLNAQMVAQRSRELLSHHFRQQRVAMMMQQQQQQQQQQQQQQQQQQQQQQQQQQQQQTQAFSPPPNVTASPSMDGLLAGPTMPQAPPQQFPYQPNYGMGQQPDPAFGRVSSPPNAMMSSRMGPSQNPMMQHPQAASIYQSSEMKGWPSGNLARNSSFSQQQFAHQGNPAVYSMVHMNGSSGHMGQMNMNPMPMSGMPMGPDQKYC

IC50 [1]: 13.1 µM (active) | EC50 [2]: 11.5 µM (active) | EC50 [3]: 62.1 µM (active) | EC50 [4]: 74.7 µM (active) | EC50 [5]: 17.7 µM (inconclusive) | EC50 [6]: 66.9 µM (active)
SMILES: COc1ccc(OC)c(S(=O)(=O)Nc2ccc(O)c(Sc3nc[nH]n3)c2)c1

IC50 (SUMO-activating enzyme [7]): 18.2 µM (active) | IC50 [8]: > 66.6 µM (inactive) | IC50 (Beta-galactosidase): > 66.6 µM (inactive) | IC50 (SUMO-activating enzyme [9]): 8.52 µM (active)
SMILES: N#C/C(=C\c1ccc(-c2ccc([N+](=O)[O-])cc2)o1)C(=O)Nc1nc(-c2cccs2)cs1

SMILES: O=C(Nc1cccnc1)c1sc(Nc2ccccc2)nc1-c1ccccc1
IC50 (H9c2): > 79 µM (inactive) | EC50 [10]: 2.72 µM (active) | EC50 [11]: 40 µM (not active) | EC50 [12]: 3.26 µM (active)
